Reference: ChEMBL document CHEMBL1201862, “PubChem BioAssay data set” (2004)
Calls of active or inactive are those of the source.

Tests used:
[1] = target: Heat shock protein HSP 90-alpha (Homo sapiens, UniProt P07900); assay type: functional, organism-based
[2] = system: Streptococcus sp. 'group A'; experiment: Streptococcus pyogenes SK(-)GAS viability under kanamycin – luminescence, BacTiterGlo, confirmation, counter-screen for streptokinase expression inhibitor project, dose response (AID 1900); assay type: functional, organism-based
Streptococcus = experiment: GAS UMAA2166 growth inhibition – luminescence, BacTiterGlo, counter-screen for streptokinase expression inhibitor project, dose response (AID 1915); assay type: functional, organism-based;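 also: potency for reduction of bacterial viability or growth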
Nonstructural protein 1 = Nonstructural protein 1 (Influenza A virus, UniProt Q194T2); assay type: functional, Influenza A virus (A/California/07/2009(H1N1))
[3] = target: T1, Short transient receptor potential channel 4 (Mus musculus, UniProt Q9QUQ5); experiment: calcium entry via TRPC4 opening agents – cell-based, HEK293 TRPC4/mu-opioid, Fluo-4 calcium, dose response (AID 434937); assay type: functional
T1 sequence (Q9QUQ5 whole entry): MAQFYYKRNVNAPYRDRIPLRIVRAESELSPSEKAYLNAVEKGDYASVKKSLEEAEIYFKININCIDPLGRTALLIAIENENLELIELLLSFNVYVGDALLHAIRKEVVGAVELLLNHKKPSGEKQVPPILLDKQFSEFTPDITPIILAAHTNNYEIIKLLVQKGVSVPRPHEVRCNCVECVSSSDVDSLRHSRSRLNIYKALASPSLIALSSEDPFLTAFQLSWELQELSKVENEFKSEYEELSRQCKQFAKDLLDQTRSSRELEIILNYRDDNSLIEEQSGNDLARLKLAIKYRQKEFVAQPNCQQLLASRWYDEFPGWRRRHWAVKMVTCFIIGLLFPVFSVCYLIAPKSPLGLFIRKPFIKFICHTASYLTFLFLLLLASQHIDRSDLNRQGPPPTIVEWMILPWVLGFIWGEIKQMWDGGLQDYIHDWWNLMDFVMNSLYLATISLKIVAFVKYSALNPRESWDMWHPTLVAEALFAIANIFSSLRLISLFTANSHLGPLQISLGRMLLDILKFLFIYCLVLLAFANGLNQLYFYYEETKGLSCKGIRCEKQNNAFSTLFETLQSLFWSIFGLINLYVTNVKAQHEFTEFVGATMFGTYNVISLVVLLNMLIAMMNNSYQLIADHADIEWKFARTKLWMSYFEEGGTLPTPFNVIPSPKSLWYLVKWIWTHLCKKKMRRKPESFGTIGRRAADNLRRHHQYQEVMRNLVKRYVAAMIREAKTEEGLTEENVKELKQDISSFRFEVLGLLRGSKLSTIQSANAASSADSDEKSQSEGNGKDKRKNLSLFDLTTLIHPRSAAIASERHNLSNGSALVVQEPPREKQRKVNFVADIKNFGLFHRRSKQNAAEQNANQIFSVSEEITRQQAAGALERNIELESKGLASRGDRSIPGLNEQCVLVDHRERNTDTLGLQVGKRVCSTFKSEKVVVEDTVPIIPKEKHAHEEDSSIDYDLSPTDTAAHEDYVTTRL

[4] = target: T2, Carboxy-terminal domain RNA polymerase II polypeptide A small phosphatase 1 (Homo sapiens, UniProt Q9GZU7); experiment: CTDSP1 inhibitors, concentration-response, biochemical, absorbance readout, ultra-high-throughput screen actives (AID 540297); assay type: functional
T2 sequence (Q9GZU7 whole entry): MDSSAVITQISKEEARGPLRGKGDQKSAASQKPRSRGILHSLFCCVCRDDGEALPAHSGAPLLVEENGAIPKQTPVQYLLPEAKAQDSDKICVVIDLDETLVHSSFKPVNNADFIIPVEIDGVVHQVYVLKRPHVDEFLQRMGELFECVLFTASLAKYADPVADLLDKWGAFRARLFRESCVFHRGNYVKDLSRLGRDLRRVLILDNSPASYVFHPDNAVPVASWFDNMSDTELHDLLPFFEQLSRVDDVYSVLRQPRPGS

Streptokinase A = target: T3, Streptokinase A (Streptococcus pyogenes serotype M1, UniProt P10520); experiment: viability-normalized secreted streptokinase activity reduction – plasminogen activation absorbance, OD405, dose response (AID 1914); assay type: functional, Streptococcus pyogenes M1 GAS;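 also: secreted streptokinase activity via plasminogen activation per viability signal from cell pellet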
T3 sequence (P10520 whole entry): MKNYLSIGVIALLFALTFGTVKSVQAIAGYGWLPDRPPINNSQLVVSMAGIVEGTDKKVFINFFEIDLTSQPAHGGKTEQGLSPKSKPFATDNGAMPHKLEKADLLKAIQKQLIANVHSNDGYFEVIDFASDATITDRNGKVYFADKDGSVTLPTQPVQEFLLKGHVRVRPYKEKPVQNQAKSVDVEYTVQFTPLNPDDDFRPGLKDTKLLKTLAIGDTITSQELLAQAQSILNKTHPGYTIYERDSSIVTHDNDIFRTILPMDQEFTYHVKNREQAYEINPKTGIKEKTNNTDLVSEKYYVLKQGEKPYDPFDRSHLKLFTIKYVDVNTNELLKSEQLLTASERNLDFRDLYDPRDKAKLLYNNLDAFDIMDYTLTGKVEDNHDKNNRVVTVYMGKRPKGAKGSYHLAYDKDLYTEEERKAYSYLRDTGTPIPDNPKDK

[5] = blockers of HIV-1 envelope-mediated cell-cell fusion – cherry-pick, dose response (AID 652057); assay type: functional, cell-based
[6] = blockers of HIV-1 ZM109 envelope-driven cell-cell fusion – HeLa effector, CEM target cells, luciferase, cherry-pick, dose response (AID 652058); assay type: functional, cell-based;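 also: luciferase signal from HIV-1 Env mediated cell-cell fusion of effector and target cells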
[7] = off-target signal loss in HeLa-CEM21 co-culture – HeLa F-luc CTL cells, cherry-picked, counter-screen for HIV-1 Env fusion inhibitor project, dose response (AID 652040); assay type: functional, cell-based;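 also: potency for signal decrease marking cytotoxic or nonspecific inhibition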
Cytochrome P450 1A2 = target: T4, Cytochrome P450 1A2 (Homo sapiens, UniProt P05177);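 also: PubChem cytochrome P450 panel assay, CYP1A2 panel member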
T4 sequence (P05177 whole entry): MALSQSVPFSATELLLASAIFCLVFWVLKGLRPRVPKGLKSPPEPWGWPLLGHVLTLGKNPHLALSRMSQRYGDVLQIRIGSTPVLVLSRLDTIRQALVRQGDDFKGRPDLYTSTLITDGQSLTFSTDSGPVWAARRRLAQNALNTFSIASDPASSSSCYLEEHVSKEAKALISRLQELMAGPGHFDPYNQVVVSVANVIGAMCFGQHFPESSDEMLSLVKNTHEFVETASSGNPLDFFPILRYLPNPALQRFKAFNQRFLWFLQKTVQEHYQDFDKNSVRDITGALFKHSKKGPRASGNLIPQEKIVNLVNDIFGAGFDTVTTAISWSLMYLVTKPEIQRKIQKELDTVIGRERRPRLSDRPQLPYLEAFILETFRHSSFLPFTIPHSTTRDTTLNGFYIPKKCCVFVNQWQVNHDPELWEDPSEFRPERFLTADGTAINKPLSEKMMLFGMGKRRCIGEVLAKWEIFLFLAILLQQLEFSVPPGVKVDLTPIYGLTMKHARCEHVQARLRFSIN

Cytochrome P450 2C9 = Cytochrome P450 2C9 (Homo sapiens, UniProt P11712)
[8] = target: T5, Ubiquitin-conjugating enzyme E2 N (Homo sapiens, UniProt P61088); assay type: functional;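 also: Dose-response confirmation in a TR-FRET assay detecting UBC13-driven polyubiquitin chain formation, inhibition measured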
T5 sequence (P61088 whole entry): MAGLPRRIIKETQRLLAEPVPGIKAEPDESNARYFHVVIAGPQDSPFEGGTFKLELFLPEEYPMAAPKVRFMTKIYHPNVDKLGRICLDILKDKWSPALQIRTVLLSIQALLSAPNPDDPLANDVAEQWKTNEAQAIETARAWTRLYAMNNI

Vero = experiment: cells; assay type: functional; settings: Chlorocebus sabaeus
[9] = HIV-1 AD8 envelope cell-cell fusion blockers – cherry-pick, dose response (AID 652062); assay type: functional, cell-based;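 also: luciferase signal from cell-cell fusion driven by HIV-1 clade B AD8 Env; potency is for inhibitors of fusion seen as a drop in luminescence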
[10] = target: FAD-linked sulfhydryl oxidase ALR (Homo sapiens, UniProt P55789); experiment: ALR-catalysed DTT oxidation blockers – biochemical, H2O2 detection, luminescence, cherry-pick, dose response (AID 493248)
[11] = reduction of Shn3 3'UTR-driven luciferase in osteoblasts – cell-based, Clone20 osteoblasts, firefly luciferase, cherry-picked, dose response (AID 624132); assay type: functional;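 also: firefly luciferase luminescence from reporter carrying the Shn3 3'UTR in osteoblasts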
[12] = loss of viability in HepG2 cells – cell-based, CellTiter-Glo, cherry-picked, cytotoxicity control for Shn3 inhibitor project, dose response (AID 624134); assay type: functional
[13] = non-specific 3'UTR reporter inhibition in Clone20-Shn3RL – cell-based, Renilla luciferase, cherry-picked, counter-screen for Shn3 inhibitor project, dose response (AID 624133); assay type: functional
P388/ADR = experiment: cells; assay type: functional; settings: Mus musculus
SN12K1 = experiment: cells; assay type: functional; settings: Homo sapiens
[14] = viability of uninfected HEp-2 cells – cell-based, HTS, cytotoxicity control for RSV inhibitor project, dose response (AID 2410); assay type: functional; settings: human respiratory syncytial virus
Fatty acid synthase = Fatty acid synthase (Homo sapiens, UniProt P49327); experiment: inhibition of human FAS-TE enzyme activity – biochemical, kinetic fluorescence intensity, dose response (AID 624326); assay type: functional;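 also: rate of fluorescence rise from hydrolysis of a fluorogenic O-methyl fluorescein ester substrate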
Chain of Fatty acid synthase (P49327 whole entry): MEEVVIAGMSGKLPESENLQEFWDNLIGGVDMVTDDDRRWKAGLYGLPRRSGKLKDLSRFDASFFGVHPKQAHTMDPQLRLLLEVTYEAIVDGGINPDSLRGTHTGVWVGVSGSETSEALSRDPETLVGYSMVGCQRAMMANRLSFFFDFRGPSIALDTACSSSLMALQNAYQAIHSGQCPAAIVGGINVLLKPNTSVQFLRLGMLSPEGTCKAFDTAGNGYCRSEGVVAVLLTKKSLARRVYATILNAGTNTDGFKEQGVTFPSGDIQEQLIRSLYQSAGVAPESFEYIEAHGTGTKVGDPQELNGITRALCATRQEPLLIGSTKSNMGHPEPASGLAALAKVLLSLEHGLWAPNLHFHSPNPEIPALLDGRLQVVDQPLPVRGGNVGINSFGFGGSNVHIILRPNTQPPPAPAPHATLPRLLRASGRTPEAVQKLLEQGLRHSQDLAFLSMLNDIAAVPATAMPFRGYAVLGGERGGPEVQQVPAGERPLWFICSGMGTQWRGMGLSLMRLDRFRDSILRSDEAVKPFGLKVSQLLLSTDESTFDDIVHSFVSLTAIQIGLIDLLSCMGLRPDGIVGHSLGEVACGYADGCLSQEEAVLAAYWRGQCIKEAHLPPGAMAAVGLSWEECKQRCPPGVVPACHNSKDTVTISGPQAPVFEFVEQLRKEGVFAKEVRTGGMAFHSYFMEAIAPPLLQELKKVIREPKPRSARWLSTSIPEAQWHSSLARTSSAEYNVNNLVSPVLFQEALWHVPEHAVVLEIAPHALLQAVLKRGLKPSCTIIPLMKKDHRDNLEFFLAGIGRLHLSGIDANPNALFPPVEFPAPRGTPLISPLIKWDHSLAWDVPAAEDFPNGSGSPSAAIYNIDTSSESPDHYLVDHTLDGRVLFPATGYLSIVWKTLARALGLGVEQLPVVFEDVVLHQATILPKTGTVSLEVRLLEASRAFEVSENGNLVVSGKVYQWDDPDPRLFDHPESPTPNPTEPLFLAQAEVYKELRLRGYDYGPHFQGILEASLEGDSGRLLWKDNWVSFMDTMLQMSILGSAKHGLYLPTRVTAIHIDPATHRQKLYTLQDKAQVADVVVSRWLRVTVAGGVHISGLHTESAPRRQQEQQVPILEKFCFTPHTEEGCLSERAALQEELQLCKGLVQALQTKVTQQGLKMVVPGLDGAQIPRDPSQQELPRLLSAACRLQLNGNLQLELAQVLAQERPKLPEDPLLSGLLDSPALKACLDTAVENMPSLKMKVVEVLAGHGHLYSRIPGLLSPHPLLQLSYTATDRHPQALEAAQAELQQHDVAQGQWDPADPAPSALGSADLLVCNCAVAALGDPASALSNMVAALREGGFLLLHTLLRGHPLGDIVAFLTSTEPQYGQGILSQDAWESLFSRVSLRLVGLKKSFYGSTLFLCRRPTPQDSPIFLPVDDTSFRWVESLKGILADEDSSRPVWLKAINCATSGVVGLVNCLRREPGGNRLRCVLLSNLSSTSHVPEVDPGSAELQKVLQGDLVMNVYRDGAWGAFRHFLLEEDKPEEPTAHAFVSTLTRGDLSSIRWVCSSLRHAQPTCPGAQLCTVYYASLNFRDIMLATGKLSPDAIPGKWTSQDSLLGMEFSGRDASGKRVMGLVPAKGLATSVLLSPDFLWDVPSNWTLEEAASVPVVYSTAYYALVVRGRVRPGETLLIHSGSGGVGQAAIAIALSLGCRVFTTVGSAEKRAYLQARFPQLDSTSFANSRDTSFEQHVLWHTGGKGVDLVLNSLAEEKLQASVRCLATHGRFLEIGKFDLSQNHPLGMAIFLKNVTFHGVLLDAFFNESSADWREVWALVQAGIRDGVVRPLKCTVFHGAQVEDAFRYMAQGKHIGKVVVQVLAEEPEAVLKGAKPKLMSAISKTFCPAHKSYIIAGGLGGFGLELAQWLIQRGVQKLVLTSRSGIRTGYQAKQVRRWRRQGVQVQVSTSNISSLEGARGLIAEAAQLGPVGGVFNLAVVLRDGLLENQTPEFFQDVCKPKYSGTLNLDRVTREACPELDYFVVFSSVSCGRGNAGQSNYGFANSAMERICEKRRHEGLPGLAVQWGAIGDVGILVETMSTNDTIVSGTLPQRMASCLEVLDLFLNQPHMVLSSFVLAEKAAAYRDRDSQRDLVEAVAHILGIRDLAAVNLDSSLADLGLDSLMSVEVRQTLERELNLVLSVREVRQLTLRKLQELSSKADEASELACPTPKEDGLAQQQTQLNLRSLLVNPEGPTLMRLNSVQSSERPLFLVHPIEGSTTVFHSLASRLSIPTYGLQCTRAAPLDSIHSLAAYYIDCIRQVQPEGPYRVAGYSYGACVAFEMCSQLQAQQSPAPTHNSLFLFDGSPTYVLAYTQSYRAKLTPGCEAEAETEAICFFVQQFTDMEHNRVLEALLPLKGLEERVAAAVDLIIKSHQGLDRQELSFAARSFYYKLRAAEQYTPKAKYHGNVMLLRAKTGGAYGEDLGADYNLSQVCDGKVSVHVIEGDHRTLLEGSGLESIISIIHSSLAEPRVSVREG

Chain of Nonstructural protein 1 (Q194T2 whole entry): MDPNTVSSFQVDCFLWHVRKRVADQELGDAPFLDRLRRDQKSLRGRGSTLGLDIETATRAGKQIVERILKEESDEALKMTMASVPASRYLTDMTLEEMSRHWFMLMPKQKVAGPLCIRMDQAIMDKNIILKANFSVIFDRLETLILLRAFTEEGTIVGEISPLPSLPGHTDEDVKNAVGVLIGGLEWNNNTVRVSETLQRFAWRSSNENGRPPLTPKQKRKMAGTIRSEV
Chain of Cytochrome P450 2C9 (P11712 whole entry): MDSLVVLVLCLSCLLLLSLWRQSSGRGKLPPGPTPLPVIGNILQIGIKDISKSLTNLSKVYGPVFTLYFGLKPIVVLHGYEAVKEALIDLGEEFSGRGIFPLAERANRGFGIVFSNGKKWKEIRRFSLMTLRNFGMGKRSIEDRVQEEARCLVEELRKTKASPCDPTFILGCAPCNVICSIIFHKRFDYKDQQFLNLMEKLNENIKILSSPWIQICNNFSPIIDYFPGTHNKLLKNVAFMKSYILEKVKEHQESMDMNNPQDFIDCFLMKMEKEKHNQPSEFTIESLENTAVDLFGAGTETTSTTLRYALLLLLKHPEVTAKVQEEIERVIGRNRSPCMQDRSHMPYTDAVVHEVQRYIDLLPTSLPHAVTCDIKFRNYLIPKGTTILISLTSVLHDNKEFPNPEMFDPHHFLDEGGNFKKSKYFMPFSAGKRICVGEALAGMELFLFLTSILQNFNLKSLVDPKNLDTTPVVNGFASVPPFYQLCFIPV
Chain of FAD-linked sulfhydryl oxidase ALR (P55789 whole entry): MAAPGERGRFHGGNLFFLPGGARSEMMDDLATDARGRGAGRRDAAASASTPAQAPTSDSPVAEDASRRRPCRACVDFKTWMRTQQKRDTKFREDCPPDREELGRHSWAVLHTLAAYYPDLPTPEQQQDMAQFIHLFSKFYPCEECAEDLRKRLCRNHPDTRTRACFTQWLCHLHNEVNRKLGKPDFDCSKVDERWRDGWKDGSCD

## COc1ccc(C(=O)O/N=C2\C(=O)N(C)c3ccccc32)cc1
[1]
  AC50: 1.1 µM (active)

## Oc1ccc(/C=C/c2ccc3cccc(O)c3n2)cc1Br
[2]
  EC50: 1.03 µM (active)
Streptococcus
  EC50: 2.72 µM (active)
[1]
  AC50: 1.35 µM (active)

## N#Cc1nc(-c2ccco2)oc1N1CCc2ccccc2C1
Nonstructural protein 1
  IC50: > 100 µM (active)

## O=c1c(Cc2ccccc2)c(O)ccn1CCc1c[nH]cn1
[3]
  EC50: 3.76 µM (active)

## CC1CN(c2ccc([N+](=O)[O-])c3cccnc23)CC(C)N1 (configuration not stated)
[3]
  EC50: 0.335 µM (active)

## CCN1CCN(c2ccc(S(=O)(=O)N3CCOCC3)cc2NC(=O)c2ccccc2OC(F)F)CC1
[3]
  EC50: 0.299 µM (active)

## O=C(OCc1nnc(-c2ccccc2)o1)c1ccc(S(=O)(=O)NCc2ccco2)cc1
[4]
  IC50: 13.4 µM (active)

## CCCCCCc1nc2ccccc2c(=O)n1NC(=O)c1c(O)c2c(n(CC(C)C)c1=O)CCCC2
[2]
  EC50: 84.9 µM (active)
Streptokinase A
  EC50: > 150 µM (not active)
Streptococcus
  EC50: > 150 µM (not active)
[5]
  AC50: 22.8 µM (active)
[6]
  AC50: 69.4 µM (active)
[7]
  AC50: 4.42 µM (active)
Cytochrome P450 1A2
  AC50: 15.8 µM (inconclusive)
Cytochrome P450 2C9
  AC50: 0.708 µM (inconclusive)

## N#C/C(=C/C1=C(N2CCOCC2)C(=C/c2ccccc2)/CC1)C(=O)Nc1ccccc1F
Nonstructural protein 1
  IC50: 3.83 µM (active)

## COc1cccc(-c2nnc3n2N=C(c2cc(OC)ccc2OC)CS3)c1
[8]
  IC50: > 20 µM (inactive)

## Cc1ccc2oc(=O)c3cc(C(=O)NCCCN4CCCC(C)C4)sc3c2c1 (configuration not stated)
Vero
  CC50: > 25 µM (active)

## C=CCNc1ncnc2ccc(Br)cc12
[5]
  AC50: 4.53 µM (active)
[6]
  AC50: 39.1 µM (active)
[7]
  AC50: 5.9 µM (active)
[9]
  AC50: 6.46 µM (active)

## COC(=O)/C=C/S(=O)(=O)c1ccc(NC(C)=O)cc1
[10]
  AC50: 0.118 µM (active)
[11]
  AC50: 7.3 µM (active)
[12]
  AC50: 42.2 µM (active)
[13]
  AC50: 14.2 µM (active)

## C#CCOCCOCCOCCNc1nc(N2CCN(C(=O)[C@H](CCCN=C(N)N)n3cc(C(N)[C@@H](C)CC)nn3)CC2)nc(N2CCN(C(=O)[C@H](CC(N)=O)n3cc([C@@H](N)CC(N)=O)nn3)CC2)n1 (some centres not stated)
[8]
  IC50: > 20 µM (inactive)

## Cc1ccc(-n2cc(CNC(C)Cc3cnccn3)c(-c3cccc(C)c3)n2)cc1 (configuration not stated)
[3]
  EC50: 5.96 µM (active)

## COc1ccc(S(=O)(=O)N(C)C)cc1NC(=O)C1CCN(c2ncnc3sc(C)c(C)c23)CC1
[11]
  AC50: 9.21 µM (active)
[12]
  AC50: > 70 µM (inactive)
[13]
  AC50: 18.9 µM (active)

## O=C(C1CCCN(Cc2ccncc2)C1)N1CCc2ccccc2C1 (configuration not stated)
[3]
  EC50: 0.188 µM (active)

## Cc1csc(NC(=O)CSc2sc3c(O)cc(O)nc3c2C#N)n1
[4]
  IC50: 5.14 µM (active)

## CC[C@@]1(C(=O)OC)N[C@H](CN(C)C(=O)COc2ccccc2)[C@@H]2C(=O)N(Cc3ccccc3)C(=O)[C@@H]21
[5]
  AC50: 2.2 µM (active)
[6]
  AC50: 1.53 µM (active)
[7]
  AC50: 4.2 µM (active)
[9]
  AC50: 3.82 µM (active)

## CCOC(=O)C1(Cc2cccc(F)c2)CCN(Cc2cnn(CC)c2)CC1
[3]
  EC50: 0.668 µM (active)

## Nc1nc(N)nc(-c2ccccn2)n1
Nonstructural protein 1
  IC50: 19.9 µM (active)

## N#C/C(=C/c1ccc(OC(=O)c2ccc(Br)s2)cc1)c1nc2ccccc2[nH]1
[4]
  IC50: 1.82 µM (active)

## O=S(=O)(NCc1ccncc1)c1ccc(F)c(F)c1
[11]
  AC50: 2.09 µM (active)
[12]
  AC50: 54.7 µM (active)
[13]
  AC50: 1.2 µM (active)

## CC(=O)Oc1c(OC(C)=O)c(-c2ccc(O)c(O)c2)c(O)c(O)c1-c1ccc(O)cc1
P388/ADR
  GI50: 20.7 µM (inactive)
SN12K1
  GI50: > 100 µM (inactive)

## O=C(N/N=C/c1cc(Br)c(Br)o1)c1cc2ccccc2o1
[4]
  IC50: 5.65 µM (active)

## O=C1C(NS(=O)(=O)c2cccs2)=C(N2CCN(c3cccc(C(F)(F)F)c3)CC2)C(=O)c2ccccc21
[14]
  CC50: 12.4 µM (active)
[2]
  EC50: 7.31 µM (active)
Streptokinase A
  EC50: > 150 µM (not active)
Streptococcus
  EC50: 13.5 µM (active)
Nonstructural protein 1
  IC50: 19.6 µM (active)

## CCc1nc2c(OCc3ccc(C(F)(F)F)cc3)cccn2c1N(C=O)Cc1ccc(OC)cc1
Fatty acid synthase
  IC50: 9.21 µM (active)

## c1coc(CN(Cc2ccco2)c2ncnc3c2oc2ccccc23)c1
[11]
  AC50: 5.45 µM (active)
[12]
  AC50: 67 µM (active)
[13]
  AC50: 3.94 µM (active)
